Laboratory results taken from patent US9290465B2, “Substituted isoxazole amine compounds as inhibitors of SCD1” (Hoffmann-La Roche Inc., priority 2012, dated 2016).
Structures can show the parent of a compound that is named as a salt.

Assays:
SCD1 = target: T1, SCD1 (Mus musculus, UniProt P13516); assay: SCD assay: release of tritiated water from desaturation of 9,10-3H-stearoyl CoA, mouse liver microsomes; assay type: biochemical; conditions: mouse liver microsomes as SCD source; 300 nM (9,10) 3H-stearoyl CoA; 25 minutes at rt; read-out: IC50 (nM), in vitro inhibition of SCD1
T1 construct: Mouse liver microsomes, prepared from mice fed a high-carbohydrate diet, were a source of the SCD; from tissue; host or cells: mouse liver microsomes (mice fed a high-carbohydrate diet)
T1 sequence (P13516 1-355): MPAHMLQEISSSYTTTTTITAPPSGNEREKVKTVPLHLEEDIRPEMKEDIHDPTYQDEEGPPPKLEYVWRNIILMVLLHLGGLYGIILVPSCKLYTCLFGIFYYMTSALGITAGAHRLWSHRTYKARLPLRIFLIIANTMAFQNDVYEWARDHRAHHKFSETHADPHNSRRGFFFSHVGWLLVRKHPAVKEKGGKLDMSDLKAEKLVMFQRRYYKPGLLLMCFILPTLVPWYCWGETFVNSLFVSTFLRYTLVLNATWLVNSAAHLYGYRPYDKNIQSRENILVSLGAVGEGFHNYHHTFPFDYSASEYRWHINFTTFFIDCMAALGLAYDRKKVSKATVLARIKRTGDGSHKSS
Description: Stearoyl CoA desaturase activity was monitored by a modification of the acyl carrier protein assay described by B. R. Talamo and K. Bloch in Anal. Biochem. 1968, 29, 300-304. The SCD assay monitors the release of tritiated water from the desaturation of 9,10-^3H-stearoyl CoA.
Mouse liver microsomes, prepared from mice fed a high-carbohydrate diet, were a source of the SCD and cyt b5 and cyt b5 reductase, necessary accessory proteins for the coupled reaction. Reaction mixtures for compound titrations contained 50 mM Tris HCl pH 7.5, 100 mM NaCl, 0.165 mg/mL BSA, 2.4% DMSO, 1 mM NADH, 0.03% T-20, and 300 nM (9,10) ^3H-stearoyl CoA (Perkin-Elmer). Reactions were initiated upon the addition of 4 ug/mL SCD microsomes. Incubations were terminated after 25 minutes at rt with cold 6% TCA. After standing 10 minutes at 4° C., samples were centrifuged 15 minutes at 4000 rpm to pellet precipitated protein. Supernatants were added to microtiter plates containing suspensions of activated charcoal (Darco G-60, Fisher Scientific) and mixed by inversion. Plates were then centrifuged to separate ^3H—H2O product from charcoal-bound reactants. Supernatants were quantitated in a Perkin Elmer Topcount 384 after solubilization in ScintiSafe Plus 50% (Fisher Scientific).
Inhibition (%) of SCD activity by compounds was calculated according to the following formula: % Inhibition=100*[1−(CPMsample−CPMblank)/(CPMtotal−CPMblank)].

Question: Which melting point does the source give for `Nc1conc1-c1ccc(OCc2ccc(Cl)cc2)cc1` (as salt: hydrochloride) [Example 25, 3-[4-(4-Chloro-benzyloxy)-phenyl]-isoxazol-4-ylamine hydrochloride] here?
Answer: 174 to 176 °C

Question: Which IC50 (SCD1) does the source give for `Nc1conc1-c1ccc(OCc2ccc(F)cc2)cc1` [Example 2, 3-[4-(4-Fluoro-benzyloxy)-phenyl]-isoxazol-4-ylamine] here?
Answer: 612 nM

Question: For `Nc1conc1-c1ccc(OCc2ccccc2)cc1` [Example 3, 3-(4-Benzyloxy-phenyl)-isoxazol-4-ylamine], which IC50 (SCD1) is on record?
Answer: 464 nM

Question: Which IC50 (SCD1) does the source give for `COc1ccc(COc2ccc(-c3nocc3N)cc2)cc1` [Example 4, 3-[4-(4-Methoxy-benzyloxy)-phenyl]-isoxazol-4-ylamine] here?
Answer: 104 nM

Question: And the melting point?
Answer: 92 to 98 °C

Question: With `COC(=O)c1ccc(COc2ccc(-c3nocc3N)cc2)cc1` [Example 5, 4-[4-(4-Amino-isoxazol-3-yl)-phenoxymethyl]-benzoic acid methyl ester hydrochloride] as the molecule, how does the IC50 (SCD1) read?
Answer: 152 nM

Question: For `CS(=O)(=O)c1ccc(COc2ccc(-c3nocc3N)cc2)cc1` [Example 6, 3-[4-(4-Methanesulfonyl-benzyloxy)-phenyl]-isoxazol-4-ylamine], which IC50 (SCD1) is on record?
Answer: 40 nM

Question: With `CS(=O)(=O)c1ccc(NCc2ccc(-c3nocc3N)cc2)cc1` [Example 7, 3-{4-[(4-methanesulfonyl-phenylamino)-methyl]-phenyl}-isoxazol-4-ylamine hydrochloride] as the molecule, how does the IC50 (SCD1) read?
Answer: 817 nM

Question: Which IC50 (SCD1) does the source give for `CS(=O)(=O)c1ccc(COc2ccc(-c3nocc3N)cc2)c(Cl)c1` [Example 8, 3-[4-(2-Chloro-4-methanesulfonyl-benzyloxy)-phenyl]-isoxazol-4-ylamine] here?
Answer: 191 nM

Question: For `CS(=O)(=O)c1ccc(CCc2ccc(-c3nocc3N)cc2)cc1` [Example 9, 3-{4-[2-(4-Methanesulfonyl-phenyl)-ethyl]-phenyl}-isoxazol-4-ylamine], which IC50 (SCD1) is on record?
Answer: 280 nM

Question: Which IC50 (SCD1) does the source give for `Nc1conc1-c1ccc(OCCc2ccccc2)cc1` [Example 10] here?
Answer: 1930 nM

Question: For `Nc1conc1-c1ccc(OCCCc2ccccc2)cc1` [Example 11, 3-[4-(3-Phenyl-propoxy)-phenyl]-isoxazol-4-ylamine], which IC50 (SCD1) is on record?
Answer: 372 nM

Question: Which IC50 (SCD1) does the source give for `CS(=O)(=O)c1ccc(COc2ccc(-c3nocc3N)nc2)cc1` [Example 12, 3-[5-(4-Methanesulfonyl-benzyloxy)-pyridin-2-yl]-isoxazol-4-ylamine] here?
Answer: 466 nM

Question: Which IC50 (SCD1) does the source give for `Cc1onc(-c2ccc(OCc3ccc(S(C)(=O)=O)cc3)cc2)c1N` [Example 13, 3-[4-(4-Methanesulfonyl-benzyloxy)-phenyl]-5-methyl-isoxazol-4-ylamine] here?
Answer: 864 nM

Question: For `Nc1conc1-c1ccc(OCc2cccnc2)cc1` [Example 14, 3-[4-(Pyridin-3-ylmethoxy)-phenyl]-isoxazol-4-ylamine], which IC50 (SCD1) is on record?
Answer: 2200 nM

Question: Which IC50 (SCD1) does the source give for `Nc1conc1-c1ccc(OCC(=O)c2ccccc2)cc1` [Example 15, 2-[4-(4-Amino-isoxazol-3-yl)-phenoxy]-1-phenyl-ethanone hydrochloride] here?
Answer: 395 nM

Question: For `Nc1conc1-c1ccc(OCc2ccc([N+](=O)[O-])cc2)cc1` [Example 16, 3-[4-(4-Nitro-benzyloxy)-phenyl]-isoxazol-4-ylamine hydrochloride], which IC50 (SCD1) is on record?
Answer: 264 nM

Question: Which IC50 (SCD1) does the source give for `N#Cc1ccc(COc2ccc(-c3nocc3N)cc2)cc1` [Example 17, 4-[4-(4-Amino-isoxazol-3-yl)-phenoxymethyl]-benzonitrile hydrochloride] here?
Answer: 603 nM

Question: Which IC50 (SCD1) does the source give for `N#Cc1cccc(COc2ccc(-c3nocc3N)cc2)c1` [Example 18, 3-[4-(4-Amino-isoxazol-3-yl)-phenoxymethyl]-benzonitrile hydrochloride] here?
Answer: 315 nM

Question: For `Nc1conc1-c1ccc(OCc2ccc(C(F)(F)F)cc2)cc1` [Example 19, 3-[4-(4-Trifluoromethyl-benzyloxy)-phenyl]-isoxazol-4-ylamine hydrochloride], which IC50 (SCD1) is on record?
Answer: 391 nM

Question: For `Nc1conc1-c1ccc(OCc2ccc(OC(F)(F)F)cc2)cc1` [Example 20, 3-[4-(4-Trifluoromethoxy-benzyloxy)-phenyl]-isoxazol-4-ylamine hydrochloride], which IC50 (SCD1) is on record?
Answer: 135 nM

Question: With `Nc1conc1-c1ccc(OCc2cc(F)cc(F)c2)cc1` [Example 21, 3-[4-(3,5-Difluoro-benzyloxy)-phenyl]-isoxazol-4-ylamine hydrochloride] as the molecule, how does the IC50 (SCD1) read?
Answer: 257 nM

Question: With `Nc1conc1-c1ccc(OCc2ccccc2Cl)cc1` [Example 22, 3-[4-(2-Chloro-benzyloxy)-phenyl]-isoxazol-4-ylamine hydrochloride] as the molecule, how does the IC50 (SCD1) read?
Answer: 1740 nM

Question: For `Cc1ccc(COc2ccc(-c3nocc3N)cc2)cc1C` [Example 23, 3-[4-(3,4-Dimethyl-benzyloxy)-phenyl]-isoxazol-4-ylamine hydrochloride], which IC50 (SCD1) is on record?
Answer: 148 nM

Question: For `Nc1conc1-c1ccc(OCc2cccc(OC(F)(F)F)c2)cc1` [Example 24, 3-[4-(3-Trifluoromethoxy-benzyloxy)-phenyl]-isoxazol-4-ylamine hydrochloride], which IC50 (SCD1) is on record?
Answer: 1350 nM

Question: Which IC50 (SCD1) does the source give for `Nc1conc1-c1ccc(OCc2ccc(Cl)cc2)cc1` [Example 25, 3-[4-(4-Chloro-benzyloxy)-phenyl]-isoxazol-4-ylamine hydrochloride] here?
Answer: 246 nM

Question: Which IC50 (SCD1) does the source give for `Nc1conc1-c1ccc(OCc2ccc(Cl)c(Cl)c2)cc1` [Example 26, 3-[4-(3,4-Dichloro-benzyloxy)-phenyl]-isoxazol-4-ylamine hydrochloride] here?
Answer: 162 nM

Question: For `Cc1ccc(COc2ccc(-c3nocc3N)cc2)cc1` [Example 27, 3-[4-(4-Methyl-benzyloxy)-phenyl]-isoxazol-4-ylamine hydrochloride], which IC50 (SCD1) is on record?
Answer: 196 nM

Question: Which IC50 (SCD1) does the source give for `Nc1conc1-c1ccc(OCc2ccc(I)cc2)cc1` [Example 28, 3-[4-(4-Iodo-benzyloxy)-phenyl]-isoxazol-4-ylamine] here?
Answer: 126 nM

Question: Which IC50 (SCD1) does the source give for `CC(C)c1ccc(COc2ccc(-c3nocc3N)cc2)cc1` [Example 29, 3-[4-(4-Isopropyl-benzyloxy)-phenyl]-isoxazol-4-ylamine] here?
Answer: 161 nM

Question: With `CCS(=O)(=O)c1ccc(COc2ccc(-c3nocc3N)cc2)cc1` [Example 31, 3-[4-(4-Ethanesulfonyl-benzyloxy)-phenyl]-isoxazol-4-ylamine] as the molecule, how does the IC50 (SCD1) read?
Answer: 65 nM

Question: Which IC50 (SCD1) does the source give for `Nc1conc1-c1ccc(OCc2ccc3c(c2)CCS3(=O)=O)cc1` [Example 32, 3-[4-(1,1-Dioxo-2,3-dihydro-1H-1lambda*6*-benzo[b]thiophen-5-ylmethoxy)-phenyl]-isoxazol-4-ylamine] here?
Answer: 259 nM

Question: Which IC50 (SCD1) does the source give for `Nc1conc1-c1ccc(OCc2ccc3c(c2)C=CS3(=O)=O)cc1` [Example 33, 3-[4-(1,1-Dioxo-1H-1lambda*6*-benzo[b]thiophen-5-ylmethoxy)-phenyl]-isoxazol-4-ylamine] here?
Answer: 411 nM

Question: Which IC50 (SCD1) does the source give for `Nc1conc1-c1ccc(OCc2ccc(S(=O)(=O)c3ccccc3)cc2)cc1` [Example 34, 3-[4-(4-Benzenesulfonyl-benzyloxy)-phenyl]-isoxazol-4-ylamine] here?
Answer: 673 nM

Question: Which IC50 (SCD1) does the source give for `CSc1ccc(COc2ccc(-c3nocc3N)cc2)cc1` [Example 35, 3-[4-(4-Methylsulfanyl-benzyloxy)-phenyl]-isoxazol-4-ylamine hydrochloride] here?
Answer: 99 nM

Question: For `Nc1conc1-c1ccc(OCc2ccc(SC(F)(F)F)cc2)cc1` [Example 36, 3-[4-(4-Trifluoromethylsulfanyl-benzyloxy)-phenyl]-isoxazol-4-ylamine hydrochloride], which IC50 (SCD1) is on record?
Answer: 51 nM
